The values that follow are results of earlier work, collected in PMC7383509 (Clinical Pharmacology in Drug Development, 2019).

For data set [1] the following is noted: major metabolite of oliceridine, cited from earlier work.
For another data set, the system named is μ receptor. To be noted: major metabolites of oliceridine; ref data on file; cited from earlier work.

On to `NCC[C@@]1(c2ccccn2)CCOC2(CCCC2)C1` [TRV0109662], for which the “Share of total by AUC” value in data set [1] is listed as at least 10%. Moreover, the “Share of total drug‐related material” value in data set [1] (ref data on file) is reported as 17%. The “Activity at the μ receptor” value in the data set with μ receptor is “inactive”.
